{"source": "patent US20100204142A1", "about": "“USE OF THE PEPTIDE PHPFHLFVY (RENIN INHIBITOR) AS A THERAPEUTIC AGENT” (priority 2007, published 2010)", "test_system": "drug-resistant Mycobacterium tuberculosis", "settings": "drug-resistant Mycobacterium tuberculosis growth; peptide 10 micrograms per ml; seven days", "note": "Where no end group is shown, it is not given here."}
{"substance": "PHPFHLFVY-OH [Renin inhibitor]", "values": [{"measurement": "% inhibition", "value": 0.0, "unit": "%"}]}
